Common to all, as to format: cell-based
One assay deals with fibroblast cells (T1). The experiment in a line: Fibroblast proliferation assay (MTT), control cells. The following applies: for Cell Proliferation Activity (% of control), T1: concentration not printed. As to the method: (§1) To determine if Saposin B polypeptides had anti-angiogenic activity, a series of overlapping polypeptides were synthesized and tested in the KS Y-1 cell proliferation assay. The overlapping polypeptides are SEQ ID NOs:13 though 43. Cell Proliferation assays in either KS cells or fibroblast. Cells were plated in 48 well plates at equal numbers in appropriate culture medium. Cells were treated with the test compounds at various concentrations on day one, and on day 3. MTT was done on day 5. KS cells were used to represent the activated endothelial cells, while fibroblast cells represent the control cells. The results are remarkable for the lack of toxicity to the fibroblast relative to the activated endothelial cells/KS cells.

The subject of the next assay is KS Y-1 cells. The experiment in a line: KS Y-1 cell proliferation assay (MTT). The following applies: concentration not given. As to the method: as §1
In assay [1] the test system is endothelial cells (HUVEC). The experiment in a line: Growth inhibition of endothelial cells. The protocol: (§2) Typically, in an anti-proliferation assay, the suppression of growth in the presence of the compound to be tested is measured. For example, the above cells are incubated with the polypeptides of this invention for a suitable time and the decrease in the growth rate relative to a negative control, i.e., cells of the same cell line which have been incubated in media alone, is measured. Growth of the cell culture can be measured by any method acceptable to one of skill, including but not limited to, 3H-thymidine uptake, cell counting and tetrazolium dye uptake.
(§3) By SDS-PAGE, the bacterial product was smaller than the eukaryotic protein. Because prokaryotically expressed proteins are not glycosylated, the difference in molecular weights probably represents the presence of carbohydrate in the eukaryotic protein. Recombinant proteins were then tested in KS, endothelial and control cell lines. Activity was found only in KS cell lines and endothelial cells.

The next assay has as its system KS cell lines. In words: Growth inhibition of KS cell lines by recombinant proteins. The following applies: up to the highest concentration tested (50 μg/mL). As to the method:
as §2, §3

No end group written: not given here.

CQDCIQMV [SEQ ID NO:30]: the “Cell Proliferation Activity (% of control), T1” value is listed as 92 % of control in the assay on fibroblast cells (T1) (T1, first value column) and 84 % of control with fibroblast cells (T1) (T1, second value column). Moreover, the “Cell Proliferation Activity (% of control), KS Y-1” value is on record as 77 % of control with KS Y-1 cells (KS Y-1, first value column) and 35 % of control with KS Y-1 cells (KS Y-1).
Turning to DCIQMV [SEQ ID NO:23], the “Cell Proliferation Activity (% of control), KS Y-1” value is on record as 68 % of control in the assay with KS Y-1 cells (KS Y-1, first value column) and 51 % of control with KS Y-1 cells (KS Y-1).
Consider DVCQDC [SEQ ID NO:27], for which the “Cell Proliferation Activity (% of control), T1” value is 88 % of control in the assay on fibroblast cells (T1) (T1, first value column) and 75 % of control in the assay with fibroblast cells (T1) (T1, second value column). In addition, the “Cell Proliferation Activity (% of control), KS Y-1” value in the assay on KS Y-1 cells (KS Y-1, first value column) was 60 % of control; with KS Y-1 cells (KS Y-1), 22 % of control.
The matching figures for DVCQDCI [SEQ ID NO:26]: 96 % of control, 81 % of control, 72 % of control and 40 % of control.
Take DVCQDCIQ [SEQ ID NO:25]: the “Cell Proliferation Activity (% of control), T1” value was 98 % of control in the assay with fibroblast cells (T1) (T1, first value column) and 89 % of control in the assay on fibroblast cells (T1) (T1, second value column). The “Cell Proliferation Activity (% of control), KS Y-1” value in the assay on KS Y-1 cells (KS Y-1, first value column) is 72 % of control; in the assay on KS Y-1 cells (KS Y-1) it was 39 % of control.
The corresponding values for DVCQDCIQM [SEQ ID NO:24] are 96 % of control, 84 % of control, 68 % of control and 46 % of control.
As to DVCQDCIQMV [SEQ ID NO:21], the results for the “Fibroblast Proliferation, % of Control” value with fibroblast cells (T1) (1 μg/mL) and with fibroblast cells (T1) (50 μg/mL) were 100.0 % of Control and 87.0 % of Control, respectively. Further, the “Cell Proliferation Activity (% of control), KS Y-1” value in the assay with KS Y-1 cells (KS Y-1, first value column) is on record as 29 % of control. The “growth inhibition / activity against endothelial cells” value in assay [1] is “Only endothelial cells show dose dependent growth inhibition”.
For the molecule GDVCQ [SEQ ID NO:22], the figures for the “Fibroblast Proliferation, % of Control” value in the assay on fibroblast cells (T1) (1 μg/mL), in the assay on fibroblast cells (T1) (10 μg/mL) and in the assay with fibroblast cells (T1) (50 μg/mL) were 95.7 % of Control, 95.7 % of Control and 87.0 % of Control, respectively. For the same molecule, the “Cell Proliferation Activity (% of control), KS Y-1” value in the assay on KS Y-1 cells (KS Y-1, first value column) is 59 % of control; with KS Y-1 cells (KS Y-1) it was 28 % of control.
With GDVSQDSIQMV [SEQ ID NO:20], the “Fibroblast Proliferation, % of Control” value with fibroblast cells (T1) (10 μg/mL) and with fibroblast cells (T1) (50 μg/mL) was 95.7 % of Control in each case. The “Cell Proliferation Activity (% of control), KS Y-1” value in the assay with KS Y-1 cells (KS Y-1, first value column) was 93 % of control; in the assay on KS Y-1 cells (KS Y-1), 84 % of control.
For QDCIQMV [SEQ ID NO:31, QDCIQMV], the “Cell Proliferation Activity (% of control), T1” value in the assay with fibroblast cells (T1) (T1, first value column) was 87 % of control; in the assay with fibroblast cells (T1) (T1, second value column), 80 % of control. Moreover, the “Cell Proliferation Activity (% of control), KS Y-1” value with KS Y-1 cells (KS Y-1, first value column) is given as 74 % of control.
On to VCQDCIQMV [SEQ ID NO:29], for which the “Cell Proliferation Activity (% of control), T1” value with fibroblast cells (T1) (T1, first value column) is 95 % of control; in the assay with fibroblast cells (T1) (T1, second value column) it was 86 % of control. The “Cell Proliferation Activity (% of control), KS Y-1” value in the assay with KS Y-1 cells (KS Y-1, first value column) is recorded as 65 % of control; with KS Y-1 cells (KS Y-1) it was 33 % of control.

B1: Saposin C: sphingolipid-binding glycoprotein derived from Prosaposin, recombinant (protein, UniProt P07602 311-390, looked up)
Saposin-C: SDVYCEVCEFLVKEVTKLIDNNKTEKEILDAFDKMCSKLPKSLSEECQEVVDTYGSSILSILLEEVSPELVCSMLHLCSG
modifications: Saposin-C
Take B1: the “activity against KS cell lines” value in the assay on KS cell lines is “no activity”. For the same molecule, in assay [1] (up to the highest concentration tested (50 μg/mL)), the “activity against endothelial cells” value is given as “no activity”.
